Earlier results, collected in US20090048317A1, “Formulations of candesartan” (priority 2007, published 2009).

Conditions: in water and in methanol

solubility: sparingly soluble
Structure (SMILES): CCOc1nc2cccc(C(=O)OC(C)OC(=O)OC3CCCCC3)c2n1Cc1ccc(-c2ccccc2-c2nnn[nH]2)cc1 (racemic) [Candesartan cilexetil, (±)-1-[[(cyclohexyloxy)carbonyl]oxy]ethyl-2-ethoxy-1-[[′-(1H-tetrazol-5-yl)[1,1-biphenyl]-4-yl]methyl]-1H-benzimidazole-7-carboxylate]
